Patent US7569594B2, “Analogs of leucascandrolide A” (The University of Chicago, priority 2005, dated 2009)

What was measured:
Yeast = Yeast activity; assay type: cell-based
[1] = tested on: A549, PC3 and HCT116 cells; assay: Cell Growth/Viability Assays (CellTiter-Glo); assay type: cell-based; conditions: Homo sapiens; 48 h incubation; cancer cells
Experimental: Cell Growth/Viability Assays. All assays were performed using at least three replicate wells for each compound concentration tested. Cells were seeded in 96-well white plates at the density of 1000 cells/well in 100 μL of the appropriate cell culture media. Adherent A549, PC3 and HCT116 cells were allowed to attach and grow for 24 h and then treated with 30 μL of the solution of a compound and incubated further for 48 h. After incubation, cell viability was determined using a luminescence-based commercial kit (CellTiter-Glo, Promega) and luminescence was analyzed using a Wallac Victor III plate reader. Compound concentration that gave 50% reduction in cell viability when compared with untreated control cells was calculated from sigmoidal plots of cell viability versus drug concentration. To measure cell growth inhibition, similar viability assays were performed twice: at 0 h and after 48 h incubation. And then change in number of viable cells was measured and calculated from sigmoidal plots.
Biological Activity—Using methods similar to that described above, the following compounds were tested.

[2] = tested on: W303 strain of yeast S. cerevisiae; conditions: 11.2 mg per disk; cited from earlier work
[3] = tested on: human A549 non-small lung caner cells; conditions: cited from earlier work
[4] = tested on: HCT-116 colon cancer cells; conditions: HCT-116 cells; cited from earlier work

| SMILES | Yeast: Active/Inactive (Yeast) | GI50 [1] | inhibition diameter per disk [2] | GI50 [3] | GI50 [4] |
| --- | --- | --- | --- | --- | --- |
| COC(=O)NC/C=C\c1nc(CC/C=C\C(=O)O[C@H]2CC3CC(=O)O[C@@H](/C=C/CC(C)C)CC4CCCC(C[C@@H](OC)CC(C2)O3)O4)co1 (single isomer, unassigned; (+)) [(+)-JJ-2-37] | Yeas: Active | 1 to 10 nM | – | – | – |
| COC(=O)NC/C=C\c1nc(CC/C=C\C(=O)O[C@@H]2CC3CC(=O)O[C@H](/C=C/CC(C)C)CC4CCCC(C[C@H](OC)CC(C2)O3)O4)co1 (some centres unmarked) | Yeast: Active | 10 to 100 nM | – | – | – |
| COC(=O)NC/C=C\c1nc(CC/C=C\C(=O)O[C@H]2CC3CC(=O)O[C@@H](CCCC(C)C)CC4CCCC(C[C@@H](OC)CC(C2)O3)O4)co1 (mixture of isomers) [racemic JJ-2-96] | Yeast: Active | 1 to 10 nM | – | – | – |
| COC(=O)NC/C=C\c1nc(CC/C=C\C(=O)OC2CC3CC(=O)O[C@H](/C=C/CC(C)C)C[C@H]4CCC(C)C(C[C@H](OC)CC(C2)O3)O4)co1 (some centres unmarked) [Leucascandrolide A] | – | – | 33 mm | 0.93 nM | 0.87 nM |
| C#CCCCCCCCC[C@H]1CC2CCCC(C[C@@H](OC)CC3C[C@@H](OC(=O)/C=C\CCc4coc(/C=C\CNC(=O)OC)n4)CC(CC(=O)O1)O3)O2 (mixture of isomers) [racemic JJ-2-286] | Yeast: Active | 1 to 10 nM | – | – | – |
| CCCCC[C@H]1CC2CCCC(C[C@@H](OC)CC3C[C@@H](OC(=O)/C=C\CCc4coc(/C=C\CNC(=O)OC)n4)CC(CC(=O)O1)O3)O2 (mixture of isomers) [racemic JJ-2-173] | Yeast: Active | 1 to 10 nM | – | – | – |
| COC(=O)NC/C=C\c1nc(CC/C=C\C(=O)O[C@H]2CC3CC(=O)O[C@@H](CCCCCO)CC4CCCC(C[C@@H](OC)CC(C2)O3)O4)co1 (mixture of isomers) [racemic JJ-2-194] | Yeast: Inactive | 10 to 100 nM | – | – | – |
| COC(=O)NC/C=C\c1nc(CC/C=C\C(=O)O[C@H]2CC3CC(=O)O[C@@H](CCCCCCCCc4cn(CCCNC(=O)OC(C)(C)C)nn4)CC4CCCC(C[C@@H](OC)CC(C2)O3)O4)co1 (mixture of isomers) [racemic JJ-2-288] | Yeast: Active | 10 to 100 nM | – | – | – |
